The text below walks through data of patent US20210169883A1, “METHOD OF TREATING AGGRESSION WITH OREXIN RECEPTOR ANTAGONISTS” (Icahn School of Medicine at Mount Sinai, priority 2018, published 2021).

Data set [1] deals with male CD-1 mice. Put plainly: Object recognition test. In kind it is in vivo, mouse. The note with it: 30 mg/kg EMPA or 20 mg/kg seltorexant IP; one-way ANOVA. The procedure:
(§1) Vehicle comparison for these drugs consisted of 75% DMSO in sterile water alone. SR-9659 was dissolved in 20% DMSO in sterile water. Vehicle comparison for this drug consisted of 20% DMSO in water alone. All drugs were administered intraperitoneally (IP) 30 minutes before behavioral testing. All injection volumes were limited to 100 μl.
Mice were presented with two different objects in a first (training) session, and then one of the two objects was replaced with a new object during a second (test) session. The time spent investigating each object provided an index of object recognition memory. This was calculated by subtracting the time spent with the familiar object from the time spent with the novel object.

Data set [2] deals with aggressive (AGG) CD-1 mice. Nature of the data set: Aggression conditioned place preference (CPP), systemic EMPA (Example 1). In kind it is in vivo, mouse. To be noted: EMPA 30 mg/kg I.P., vs vehicle, between-subjects. As to the method: The aggression CPP protocol was carried out according to Golden et al. (6). Briefly, this task consisted of three phases: pre-test, acquisition (conditioning), and test. Mice were acclimated to the testing facility for 1 h before all testing. All phases were conducted under red light and sound-attenuated conditions. The CPP apparatus (Med Associates) consisted of two unique conditioning chambers with a neutral middle zone that allowed for unbiased entry into either conditioning chamber at the initiation of each trial. During the pre-test phase, mice were placed into the middle chamber of the conditioning apparatus and allowed to freely explore the apparatus for 20 min. There were no group differences in bias for either chamber, and conditioning groups were balanced in an unbiased fashion to account for pre-test preference. The acquisition phase consisted of three consecutive days with two conditioning trials each day for a total of 6 acquisition trials. Morning trials (between 8-10 AM) and afternoon trials (between 3-5 PM) consisted of experimental mice confined to one chamber for 10 min while in the presence or absence of a novel C57BL/6J intruder mouse. All groups were counterbalanced for the conditioning chamber. […] Total locomotor activity was also recorded to ensure equal exploratory behavior between groups. […]

Data set [3] relates to aggressive (AGG) CD-1 mice. Nature of the data set: Resident intruder (RI) test, acute systemic EMPA (Example 1). It is filed as in vivo, mouse. As to the method:
Aggression screening was performed as previously described by utilizing the resident intruder (RI) test (6). After a minimum of one week of habituation to home cages, experimental mice were exposed to a novel C57BL/6J intruder for 3 min daily over 3 consecutive days. Each intruder presentation was performed in the home cage of the experimental mouse between 12-3 PM daily under white light conditions. During RI sessions the cage top was removed to allow for unobstructed viewing and video recording of sessions. The duration and number of screening sessions were selected to prevent induction of stress- and anxiety-related behaviors in experimental CD-1 or F1 hybrid mice (6). All RI sessions were video recorded with a digital color video camera. Two blind observers recorded (1) the latency to initial aggression and (2) the total duration of aggression. The initiation of aggression was defined by the first clear physical antagonistic interaction initiated by the resident mouse (usually a bite), not including grooming or pursuit behavior. Aggression was considered completed when the resident mouse had reoriented away from the intruder following the initiation of attack. This definition allows for slight breaks (less than 5 s) in continuous physical interaction within an aggressive bout, assuming the resident mouse has remained oriented towards the intruder throughout. […]

Data set [4] deals with aggressive (AGG) male CD-1 mice. In kind it is in vivo, mouse. As to the method: Aggression screening was performed as previously described by utilizing the resident intruder (RI) test (Golden et al., 2016b). After a minimum of one week of habituation to home cages, experimental mice were exposed to a novel C57BL/6J intruder for 3 min daily over 3 consecutive days. Each intruder presentation was performed in the home cage of the experimental mouse between 12-3 PM daily under white light conditions. During RI sessions the cage top was removed to allow for unobstructed viewing and video recording of sessions. The duration and number of screening sessions were selected to prevent induction of stress- and anxiety-related behaviors in experimental mice (Golden et al., 2016b). All RI sessions were video recorded with a digital color video camera. Two blind observers recorded (1) the latency to initial aggression and (2) the total duration of aggression. The initiation of aggression was defined by the first clear physical antagonistic interaction initiated by the resident mouse (usually a bite), not including grooming or pursuit behavior. Aggression was considered completed when the resident mouse had reoriented away from the intruder following the initiation of attack. This definition allows for slight breaks (less than 5 s) in continuous physical interaction within an aggressive bout, assuming the resident mouse has remained oriented towards the intruder throughout.
Vehicle comparison for these drugs consisted of 75% DMSO in sterile water alone. SR-9659 was dissolved in 20% DMSO in sterile water. Vehicle comparison for this drug consisted of 20% DMSO in water alone. All drugs were administered intraperitoneally (I.P.) 30 minutes before behavioral testing. All injection volumes were limited to 100 μl.
First, mice were screened for three consecutive days in the RI test. Only AGGs were selected for subsequent pharmacology experiments, as it was hypothesized that treatment with orexin antagonists would reduce aggression. […] 24 hours following the last RI test, mice were treated again with either drug or vehicle and anxiety and locomotion were assessed using the open field test.

Data set [5] concerns male CD-1 mice. Put plainly: Object placement test (spatial memory). In kind it is in vivo, mouse. To be noted: 30 mg/kg EMPA or 20 mg/kg seltorexant IP; one-way ANOVA. The procedure: as §1
Mice were presented with two of the same object in a first (training) session, and then one of the two objects was moved to a different location in the arena during a second (test) session. The time spent investigating each object provided an index of spatial memory. This was calculated by subtracting the time spent with the object in the familiar location from the time spent with the object in the novel location.

Data set [6] has as its system male CD-1 mice. Nature of the data set: Social recognition test. It is filed as in vivo, mouse. The note with it: 30 mg/kg EMPA or 20 mg/kg seltorexant IP; one-way ANOVA. As to the method: as §1
Mice were presented with two conspecific mice in a first (training) session, and then one of the two conspecific mice was replaced with an unfamiliar mouse in a second (test) session. The time spent by the test mouse investigating each conspecific mouse provided and index of social memory. This was calculated by subtracting the time spent with the novel mouse from the time spent with the familiar mouse.

For data set [7] the following is noted: cited from earlier work; for abuse potential: human, in vivo.
The target of data set [8] is T1, OX1R (Homo sapiens, UniProt O43613).
T1 sequence (O43613 1-425): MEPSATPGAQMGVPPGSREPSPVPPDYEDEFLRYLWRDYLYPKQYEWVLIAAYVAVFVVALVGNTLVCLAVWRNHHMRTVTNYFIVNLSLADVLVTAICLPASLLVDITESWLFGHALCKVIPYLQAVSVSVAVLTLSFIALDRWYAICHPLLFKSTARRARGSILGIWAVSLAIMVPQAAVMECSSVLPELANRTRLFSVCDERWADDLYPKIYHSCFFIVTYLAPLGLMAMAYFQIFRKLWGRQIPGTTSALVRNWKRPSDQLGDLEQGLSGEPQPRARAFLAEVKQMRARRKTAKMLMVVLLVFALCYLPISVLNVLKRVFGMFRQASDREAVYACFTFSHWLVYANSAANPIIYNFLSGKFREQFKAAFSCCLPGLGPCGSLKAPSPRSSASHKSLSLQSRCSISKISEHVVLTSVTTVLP
To be noted: less potent; cited from earlier work.

Data set [9] has as its target T2, OX2R (Homo sapiens, UniProt O43614).
T2 sequence (O43614 1-444): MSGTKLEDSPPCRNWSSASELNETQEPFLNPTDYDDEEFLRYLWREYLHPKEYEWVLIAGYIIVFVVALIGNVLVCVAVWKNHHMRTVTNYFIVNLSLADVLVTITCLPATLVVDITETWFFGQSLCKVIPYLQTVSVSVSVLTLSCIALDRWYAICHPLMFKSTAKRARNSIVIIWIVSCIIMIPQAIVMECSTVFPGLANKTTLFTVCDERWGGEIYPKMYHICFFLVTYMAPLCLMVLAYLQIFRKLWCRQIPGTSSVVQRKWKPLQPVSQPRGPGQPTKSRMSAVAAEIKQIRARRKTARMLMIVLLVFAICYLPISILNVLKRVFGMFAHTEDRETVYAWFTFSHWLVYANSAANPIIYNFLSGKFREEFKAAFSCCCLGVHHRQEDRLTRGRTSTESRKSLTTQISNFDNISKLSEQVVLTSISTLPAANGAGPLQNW
To be noted: cited from earlier work.

The test system of data set [10] is putative glutamatergic LHb neurons. Put plainly: Slice optogenetic stimulation of LHb GAD2 neurons recording. In kind it is cell-based, mouse.
The mark [11] stands for this setting: three days of RI, daily I.P. 30 min before test, EMPA 30 mg/kg, seltorexant 20 mg/kg, suvorexant 20 mg/kg.

Entries after “also recorded” stand apart in the source; their conditions may differ. Like-named read-outs stand apart in the source and are kept apart here.

Turning to `CCN(Cc1cccnc1)C(=O)CN(c1ccc(OC)nc1)S(=O)(=O)c1ccccc1C` [EMPA, N-ethyl-2-[(6-methoxy-pyridin-3-yl)-(toluene-2-sulphonyl)-amino]-N-pyridin-3-ylmethyl-acetamide], the “time spent with each object compared to vehicle treatment (object recognition memory, FIG. 18C)” value in data set [1] is listed as “did not alter”. The “aggression CPP” value in [2] is reported as “reduced”. Further, in [3] (EMPA 30 mg/kg I.P. 25 min before test, vs vehicle, within-subjects), the “attack duration in RI test” value is listed as “reduced”. For the same compound, the “aggression (in RI)” value in [3] (systemic EMPA, 30 mg/kg, acute) is “reduces aggression; also recorded: reduced”. Besides, the “effects of OxR2 antagonism on aggression, EMPA versus seltorexant” value in data set [4] (over the three days of RI) is recorded as “virtually indistinguishable”. Moreover, in data set [4] (setting [11]), the latency to attack entry was “increased” and the “total duration of attack” value is recorded as “reduced”. The “time spent with each object compared to vehicle treatment (spatial memory, object placement, FIG. 18B)” value in data set [5] is given as “did not alter”. In addition, the “time spent with each mouse compared to vehicle treatment (social recognition, FIG. 18A)” value in data set [6] is “did not alter”.
On to `Cc1cc(C)nc(N2CC3CN(C(=O)c4c(F)cccc4-n4nccn4)CC3C2)n1` (stereo not shown) [seltorexant], for which the “time spent with each object compared to vehicle treatment (object recognition memory, FIG. 18C)” value in [1] is reported as “did not alter”. In addition, the abuse potential entry in data set [7] is given as “low abuse potential”. Moreover, in data set [4] (mouse, in vivo), the “effects of OxR2 antagonism on aggression, EMPA versus seltorexant” value is “virtually indistinguishable”; the latency to attack entry was “increased”; the “total duration of attack” value is “reduced”. In addition, the “time spent with each object compared to vehicle treatment (spatial memory, object placement, FIG. 18B)” value in [5] was “did not alter”. In [6], the “time spent with each mouse compared to vehicle treatment (social recognition, FIG. 18A)” value is given as “did not alter”.
For the compound `Cc1ccc(-n2nccn2)c(C(=O)N2CCN(c3nc4cc(Cl)ccc4o3)CC[C@H]2C)c1` [suvorexant], the abuse potential result in data set [7] is on record as “low abuse potential”. The “tolerability in patient populations” value in data set [7] (variety of patient populations) was “well tolerated”. Moreover, the “reduction / attenuation of aggressive behavior” value in [4] (RI test, doses tested) is on record as “some attenuation of aggression”. For the same compound, the “number of mice that attacked, drug vs vehicle” value in [4] (any day of RI, suvorexant 20 mg/kg I.P., SR-9659 I.P.) was “no differences”. In data set [4] (setting [11]), the latency to attack result was “only altered attack latency and duration on day 3”; the “total duration of attack” value was “only altered attack latency and duration on day 3”.
Consider orexin-B, for which the “potency in activating OX1R relative to orexin-A” value in data set [8] is 10 fold. For the same compound, the “potency towards OX2R relative to orexin-A” value in data set [9] was “equipotent”.
Consider picrotoxin, for which the “optically elicited monosynaptic inhibitory currents in putative glutamatergic LHb neurons” value in [10] is on record as “completely blocked”.
